# US20120196828A1, “SENSITIZATION OF CANCER CELLS TO TREATMENT” (priority 2011, published 2012)
# Where “and” joins values, the source holds several entries; their conditions need not be identical. Equal values may be shown once.
# What was measured:
# [1] = test system: BxPC-3 Human Pancreas Tumor Xenograft; assay: BxPC-3 human pancreas tumor xenograft model: tumor weight and tumor growth inhibition; type: in vivo, mouse
# Description: Compounds tested in the experiment were as follows. […] A concentration of 4.8 mg/ml was formulated to deliver a 24 mg/kg dose at a 5 ml/kg dose volume when administered subcutaneously. […] Nab-paclitaxel was manufactured by Abraxis BioScience LLC (Bridgewater, N.J.) and diluted in a 0.9% NaCl solution to a concentration of 1.5 mg/ml to deliver 15 mg/kg, in a 10 ml/kg dose volume. All standard agent preparations were made fresh prior to their administration.
# BxPC-3 cells were obtained and prepared as follows. The BxPC-3 pancreas tumor cell line was received from American Type Culture Collection (ATCC, Manassas, Va.). Cultures were maintained in RPMI 1640 medium (Hyclone, Logan, Utah) supplemented with 5% fetal bovine serum. The cells were housed in a 5% CO2 atmosphere. The cultures were expanded in tissue culture flasks at a 1:3 split ratio until a sufficient amount of cells were harvested.
# (§1) All experiments were conducted on female athymic nude mice (Hsd:Athymic Nude-Foxn1nu) supplied by Harlan (Indianapolis, Ind.). Mice were received at four weeks of age, 12-15 grams in weight, and were acclimated for seven days prior to handling. The mice were housed in microisolator cages (Lab Products, Seaford, Del.) and maintained under specific pathogen-free conditions. All procedures were carried out under appropriate institutional guidelines for animal care.
# BxPC-3 Human Pancreas Tumor Xenograft Model: Female athymic nude mice per treatment condition were inoculated subcutaneously in the right flank with 0.1 ml of a 50% RPMI 1640/50% Matrigel™ (BD Biosciences, Bedford, Mass.) mixture containing a suspension of BxPC-3 tumor cells (approximately 5×10^6 cells/mouse).
# (§2) Seven days following inoculation, tumors were measured using calipers and tumor weight was calculated using the animal study management software, Study Director V.1.7.54 k (Study Log). See Britten C D, et al. Enhanced antitumor activity of 6-hydroxymethylacylfulvene in combination with irinotecan and 5-fluorouracil in the HT29 human colon tumor xenograft model. Cancer Res 59:1049-1053, 1999. […] Body weights were recorded when the mice were randomized and were taken twice weekly thereafter in conjunction with tumor measurements, on each of Days 1, 4, 8, 11, 15, 18, 22, 26, 30, 33, and 36.
# (§3) The study was terminated when the vehicle control reached an endpoint of 1500 mg, on Day 36.
# Mean tumor growth inhibition (TGI) was calculated utilizing Formula A below (deaths were not included in the TGI calculations).
# All statistical analyses in the xenograft study were performed with GraphPad Prism® v4 software.
# [2] = Body weight, deaths and clinical observations in the BxPC-3 xenograft study
# Description: as §1, §2, §3
# [3] = test system: metastatic pancreatic cancer; details: patients with metastatic pancreatic cancer; ODSH 4 mg/kg bolus then 0.375 mg/kg/hr infusion
# Description: Subjects included in the trial are: patients diagnosed with metastatic pancreatic cancer. […] See also, Burris, H. A., et al., 1997, J. Clin. Oncol. 15(6):2403-13. […] J. Clin. Oncol. 30(1):15-20. Subjects in each arm of the trial are evaluated for time to tumor progression, weight loss, pain control, six-month survival rates, and overall survival.
# Subjects included in the trial are: patients diagnosed with metastatic pancreatic cancer.
# Next, 50 subjects are then randomly assigned to one of two arms: either a control or a treatment group.
# [4] = test system: metastatic gastric cancer; details: patients with metastatic gastric cancer; ODSH with mDCF
# Description: Subjects included in the trial are: patients diagnosed with metastatic gastric, including cancer at the gastroesophageal junction. […] Subjects in each arm of the trial are evaluated for time to tumor progression, weight loss, pain control, six-month survival rates, and overall survival.
# anti-thrombin III = anti-thrombin III (Homo sapiens, UniProt P01008); details: cited from earlier work
# Chain of anti-thrombin III (P01008 33-464, species assumed): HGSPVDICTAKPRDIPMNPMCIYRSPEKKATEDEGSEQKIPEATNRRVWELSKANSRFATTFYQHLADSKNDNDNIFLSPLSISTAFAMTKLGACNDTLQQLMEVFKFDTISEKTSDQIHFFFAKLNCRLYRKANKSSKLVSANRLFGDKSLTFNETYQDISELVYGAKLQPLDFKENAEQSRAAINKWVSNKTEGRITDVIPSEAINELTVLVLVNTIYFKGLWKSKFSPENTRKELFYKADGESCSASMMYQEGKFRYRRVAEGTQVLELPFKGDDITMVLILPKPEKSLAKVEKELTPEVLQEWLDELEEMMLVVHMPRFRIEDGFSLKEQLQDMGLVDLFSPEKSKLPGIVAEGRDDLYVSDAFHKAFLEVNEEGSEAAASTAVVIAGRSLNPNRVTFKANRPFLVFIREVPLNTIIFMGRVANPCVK
# [5] = target: Receptor for Advanced Glycation End products (RAGE) / HMGB1 (Homo sapiens, UniProt Q15109); details: Rao et al. 2010; WO 2009/015183; cited from earlier work
# Chain of Receptor for Advanced Glycation End products (RAGE) / HMGB1 (Q15109 23-344 limits assumed, species assumed): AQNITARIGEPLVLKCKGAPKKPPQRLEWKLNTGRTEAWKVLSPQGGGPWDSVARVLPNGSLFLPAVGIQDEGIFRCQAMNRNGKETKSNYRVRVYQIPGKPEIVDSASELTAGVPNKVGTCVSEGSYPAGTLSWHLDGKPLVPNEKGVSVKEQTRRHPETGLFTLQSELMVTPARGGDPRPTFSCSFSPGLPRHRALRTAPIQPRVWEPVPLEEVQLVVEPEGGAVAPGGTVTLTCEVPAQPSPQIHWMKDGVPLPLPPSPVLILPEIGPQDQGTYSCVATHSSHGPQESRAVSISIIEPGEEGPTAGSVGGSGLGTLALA
# [6] = ANOVA with Tukey's Multiple Comparison Test
substance,measurement,setting,value
"2-O, 3-O desulfated heparin [ODSH]",Difference in tumor weight on Day 26 compared to vehicle control,[1]; [6],No significant difference
same,Difference in tumor weight on Day 36 compared to vehicle control,[1]; [6],No significant difference
same,"Mean tumor weight, Day 1","[1]; Day 1 (randomization), group mean, dosing per Table 1",122.4 mg
same,"Median tumor weight, Day 1","[1]; Day 1 (randomization), group median, dosing per Table 1",22.9 mg
same,"Tumor weight, individual mouse, Day 1","[1]; Day 1 (randomization), individual mouse, dosing per Table 1 (ODSH 24, oxaliplatin 10, gemcitabine 80, nab-paclitaxel 15 mg/kg)",140 mg and 116 mg and 172 mg and 94 mg and 131 mg and 106 mg and 125 mg and 143 mg and 129 mg
same,"Mean tumor weight, Day 4","[1]; Day 4, group mean, dosing per Table 1",134.0 mg
same,"Median tumor weight, Day 4","[1]; Day 4, group median, dosing per Table 1",28.6 mg
same,"Tumor weight, individual mouse, Day 4","[1]; Day 4, individual mouse, dosing per Table 1",162 mg and 98 mg and 110 mg and 141 mg and 97 mg and 181 mg and 135 mg and 130 mg and 144 mg and 133 mg
same,"Mean tumor weight, Day 8","[1]; Day 8, group mean, dosing per Table 1",146.0 mg
same,"Median tumor weight, Day 8","[1]; Day 8, group median, dosing per Table 1",40.4 mg
same,"Tumor weight, individual mouse, Day 8","[1]; Day 8, individual mouse, dosing per Table 1",218 mg and 118 mg and 144 mg and 183 mg and 125 mg and 222 mg and 126 mg and 155 mg and 157 mg and 148 mg
same,"Mean tumor weight, Day 11","[1]; Day 11, group mean, dosing per Table 1",187.6 mg
same,"Median tumor weight, Day 11","[1]; Day 11, group median, dosing per Table 1",162.1 mg
same,"Tumor weight, individual mouse, Day 11","[1]; Day 11, individual mouse, dosing per Table 1",149 mg and 288 mg and 142 mg and 175 mg and 243 mg and 146 mg and 252 mg and 137 mg and 140 mg and 203 mg
same,"Mean tumor weight, Day 15","[1]; Day 15, group mean, dosing per Table 1",263.0 mg
same,"Median tumor weight, Day 15","[1]; Day 15, group median, dosing per Table 1",250.0 mg
same,"Tumor weight, individual mouse, Day 15","[1]; Day 15, individual mouse, dosing per Table 1",206 mg and 340 mg and 224 mg and 263 mg and 348 mg and 237 mg and 321 mg and 208 mg and 218 mg and 264 mg
same,"Mean tumor weight, Day 18","[1]; Day 18, group mean, dosing per Table 1",338.5 mg
same,"Median tumor weight, Day 18","[1]; Day 18, group median, dosing per Table 1",304.7 mg
same,"Tumor weight, individual mouse, Day 18","[1]; Day 18, individual mouse, dosing per Table 1",278 mg (2×) and 489 mg and 291 mg and 288 mg and 419 mg and 256 mg and 415 mg and 318 mg and 352 mg
same,"Mean tumor weight, Day 22","[1]; Day 22, group mean, dosing per Table 1",453.8 mg
same,"Median tumor weight, Day 22","[1]; Day 22, group median, dosing per Table 1",425.4 mg
same,"Tumor weight, individual mouse, Day 22","[1]; Day 22, individual mouse, dosing per Table 1",358 mg and 622 mg and 360 mg and 400 mg and 556 mg and 402 mg and 551 mg and 449 mg and 326 mg and 515 mg
same,"Mean tumor weight, Day 26","[1]; Day 26, group mean, dosing per Table 1",616.2 mg
same,"Median tumor weight, Day 26","[1]; Day 26, group median, dosing per Table 1",551.3 mg
same,"Tumor weight, individual mouse, Day 26","[1]; Day 26, individual mouse, dosing per Table 1",509 mg and 894 mg and 478 mg and 529 mg and 770 mg and 573 mg and 724 mg and 524 mg and 394 mg and 766 mg
same,Day 26 Tumor Weight,"[1]; Day 26, mean ± Std Err, treatment administered until Day 26",616.2 ± 50.9 mg
same,Day 26 % TGI,"[1]; Day 26 vs Day 1, relative to vehicle control (Group 1), deaths not included",11.5% and 11.5 (10/10) %
same,"Mean tumor weight, Day 30","[1]; Day 30, group mean of surviving mice, dosing per Table 1",882.3 mg
same,"Median tumor weight, Day 30","[1]; Day 30, group median, dosing per Table 1",856.4 mg
same,"Tumor weight, individual mouse, Day 30","[1]; Day 30, individual mouse, dosing per Table 1","697 mg and 1,083 mg and 756 mg and 893 mg and 1,201 mg and 820 mg and 945 mg and 764 mg and 555 mg and 1,109 mg"
same,"Mean tumor weight, Day 33","[1]; Day 33, group mean of surviving mice, dosing per Table 1","1,038.6 mg"
same,"Median tumor weight, Day 33","[1]; Day 33, group median, dosing per Table 1",979.8 mg
same,"Tumor weight, individual mouse, Day 33","[1]; Day 33, individual mouse, dosing per Table 1","908 mg and 1,218 mg and 999 mg and 961 mg (2×) and 1,309 mg and 1,087 mg and 871 mg and 733 mg and 1,340 mg"
same,Day 36 Tumor Weight,"[1]; Day 36, treatment administered until Day 35",1270.1 ± 95.5 mg
same,"Median tumor weight, Day 36","[1]; Day 36, group median, dosing per Table 1","1,151.5 mg"
same,"Tumor weight, individual mouse, Day 36","[1]; Day 36, individual mouse, dosing per Table 1","1,072 mg and 1,450 mg and 1,153 mg and 1,150 mg (2×) and 1,654 mg and 1,376 mg and 1,037 mg and 836 mg and 1,823 mg"
same,Day 36 % TGI,"[1]; Day 36 vs Day 1, relative to vehicle control (Group 1), deaths not included",18.2%
same,Overall antitumor effect (summary statement),[1]; xenograft model of human pancreatic cancer,inhibits tumor growth to a similar extent as treatment with gemcitabine
same,Day 1 Average Weight,[2]; Day 1,21.54 g
same,Day 4 Average Weight,[2]; Day 4,21.18 g
same,Day 4 % Weight Loss or Gain,"[2]; Day 4, vs starting weight",−1.67%
same,Day 8 Average Weight,[2]; Day 8,21.18 g
same,Day 8 % Weight Loss or Gain,"[2]; Day 8, vs starting weight",−1.67%
same,Day 11 Average Weight,[2]; Day 11,20.95 g
same,Day 11 % Weight Loss or Gain,"[2]; Day 11, vs starting weight",−2.74%
same,Day 15 Average Weight,[2]; Day 15,21.08 g
same,Day 15 % Weight Loss or Gain,"[2]; Day 15, vs starting weight",−2.14%
same,Day 18 Average Weight,[2]; Day 18,21.04 g
same,Day 18 % Weight Loss or Gain,"[2]; Day 18, vs starting weight",−2.32%
same,Day 22 Average Weight,[2]; Day 22,22.53 g
same,Day 22 Average Weight,[2]; Day 22 (Table 12),21.56 g
same,Day 22 % Weight Loss or Gain,"[2]; Day 22 (Table 12), vs starting weight",0.09%
same,Day 22 % Weight Loss or Gain,"[2]; Day 22, vs starting weight",4.60%
same,Day 26 Average Weight,[2]; Day 26 (Table 12),22.14 g
same,Day 26 % Weight Loss or Gain,"[2]; Day 26 (Table 12), vs starting weight",2.79%
same,Day 30 % Weight Loss or Gain,"[2]; Day 30, vs starting weight, groups 3 and 5 switched regimen from Day 26",4.92%
same,Day 30 Average Weight,"[2]; Day 30, groups 3 and 5 switched to gemcitabine + nab-paclitaxel regimen from Day 26",22.60 g
same,Day 26 Average Weight,[2]; Table 13 Day 26,22.46 g
same,Day 26 % Weight Loss or Gain,"[2]; Table 13 Day 26, vs starting weight",4.27%
same,Tolerability / toxicity of the regimen,"[2]; athymic nude mice, dosing per Table 1",well-tolerated
same,Starting Weight,"[2]; baseline body weight, female athymic nude mice, BxPC-3 xenograft study",21.54 g
same,Maximum weight loss,[2]; body weight of mice,2.7%
same,Day bruising of the abdomens was first observed,"[2]; mouse, in vivo",15 days
same,Day bruising of the tails was first observed,"[2]; mouse, in vivo",8 days
same,Day by which the mice recovered their weight,"[2]; mouse, in vivo",≤ 22 days
same,Day on which maximum weight loss was reached,"[2]; mouse, in vivo",11 days
same,Day swelling of the tail was first observed,"[2]; mouse, in vivo",11 days
same,Mice demonstrating bruising on the tails or abdomen (site of injection),[2]; of ten mice,All ten
same,Mice demonstrating swelling of the tail,[2]; of ten mice,One of the ten
same,Deaths,"[2]; total deaths on or before Day 26, N = 10 per group",0
same,Deaths,"[2]; total deaths on or before Day 36, n = 10 per group",0
same,Therapeutic benefit of addition of ODSH to chemotherapy in pancreatic cancer,[3],therapeutic benefit
same,Therapeutic benefit of addition of ODSH to chemotherapy in gastric cancer,[4],therapeutic benefit
same,Kd,anti-thrombin III,~339 µM
same,Kd for anti-thrombin III,anti-thrombin III,~4000 µg/mL
same,Binding of RAGE by HMGB1 and other RAGE ligands,[5],inhibit binding
